Laboratory results from PubChem BioAssay (NCI).
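Here, GI50 denotes the concentration required for 50% inhibition of growth. TGI: total growth inhibition.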

Experiments:
Assay in all cases: NCI-60 cell line screen, 384-well format
[1] = system: OVCAR-8 ovarian
[2] = system: 786-0 renal
[3] = system: OVCAR-4 ovarian
[4] = system: NCI-H522 lung
[5] = system: NCI-H226 lung
[6] = system: MALME-3M melanoma
[7] = system: HCT-15 colon
[8] = system: NCI-H23 lung
[9] = system: RPMI-8226 leukemia
[10] = system: A498 renal
[11] = system: TK-10 renal
[12] = system: HOP-92 NSCLC
[13] = system: U251 glioblastoma
[14] = system: MOLT-4 leukemia
[15] = system: SK-MEL-28 melanoma
[16] = system: PC-3 prostate
[17] = system: COLO 205 colon
[18] = system: KM12 colon
[19] = system: SR leukemia
[20] = system: MDA-MB-468 breast
[21] = system: CAKI-1 renal
[22] = system: DU-145 prostate
[23] = system: NCI/ADR-RES ovarian
[24] = system: BT-549 breast
[25] = system: MCF7 breast
[26] = system: HOP-62 NSCLC
[27] = system: HCC-2998 colon
[28] = system: OVCAR-5 ovarian
[29] = system: SF-268 CNS
[30] = system: NCI-H322M lung
[31] = system: HL-60(TB) leukemia
[32] = system: MDA-MB-231 breast
[33] = system: UO-31 renal
[34] = system: EKVX NSCLC
[35] = system: IGROV1 ovarian
[36] = system: HT29 colon
[37] = system: SW-620 colon
[38] = system: ACHN renal
[39] = system: HS 578T breast
[40] = system: RXF 393 renal
[41] = system: A549 NSCLC
[42] = system: SNB-19 CNS
[43] = system: NCI-H460 NSCLC
[44] = system: UACC-62 melanoma
[45] = system: SK-OV-3 ovarian
[46] = system: HCT-116 colon
[47] = system: SF-539 CNS
[48] = system: SN12C renal
[49] = system: LOX IMVI melanoma
[50] = system: CCRF-CEM leukemia
[51] = system: OVCAR-3 ovarian
[52] = system: M14 melanoma
[53] = system: SF-295 CNS
[54] = system: T-47D breast
[55] = system: SNB-75 CNS

COC(=O)N[C@@H](C)CNc1nccc(-c2cn(C(C)C)nc2-c2cc(Cl)cc(NS(C)(=O)=O)c2F)n1
GI50 [1]: 38.2 µM | TGI [1]: > 100 µM | GI50 [2]: 7.06 µM | TGI [2]: > 73.3 µM | GI50 [3]: > 100 µM | TGI [3]: > 100 µM | GI50 [4]: 3.91 µM | TGI [4]: 97.9 µM | GI50 [5]: 37 µM | TGI [5]: > 100 µM | GI50 [6]: < 0.01 µM | TGI [6]: < 0.01 µM | GI50 [7]: 9.03 µM | TGI [7]: > 100 µM | GI50 [8]: 4.15 µM | TGI [8]: > 100 µM | GI50 [9]: > 100 µM | TGI [9]: > 100 µM | GI50 [10]: 1.13 µM | TGI [10]: > 100 µM | GI50 [11]: 20.7 µM | TGI [11]: > 100 µM | GI50 [12]: 7.13 µM | TGI [12]: > 100 µM | GI50 [13]: 17.2 µM | TGI [13]: 65.9 µM | GI50 [14]: 29.6 µM | TGI [14]: > 100 µM | GI50 [15]: < 0.01 µM | TGI [15]: < 0.01 µM | GI50 [16]: 70.9 µM | TGI [16]: > 100 µM | GI50 [17]: < 0.01 µM | GI50 [18]: 36.5 µM | TGI [18]: > 100 µM | GI50 [19]: 6.45 µM | TGI [19]: 20.6 µM | GI50 [20]: 11.5 µM | TGI [20]: > 100 µM | GI50 [21]: 0.728 µM | TGI [21]: > 47.9 µM | GI50 [22]: 6.7 µM | TGI [22]: > 100 µM | GI50 [23]: > 100 µM | TGI [23]: > 100 µM | GI50 [24]: 38.1 µM | TGI [24]: > 100 µM | GI50 [25]: > 100 µM | TGI [25]: > 100 µM | GI50 [26]: 61.9 µM | TGI [26]: > 100 µM | GI50 [27]: 11.9 µM | TGI [27]: 39.7 µM | GI50 [28]: 33.2 µM | TGI [28]: > 100 µM | GI50 [29]: > 84.8 µM | TGI [29]: > 100 µM | GI50 [30]: 6.15 µM | TGI [30]: > 95.8 µM | GI50 [31]: 2.06 µM | TGI [31]: 6.91 µM | GI50 [32]: 3.17 µM | TGI [32]: 40.2 µM | GI50 [33]: 6.96 µM | TGI [33]: > 100 µM | GI50 [34]: 13.8 µM | TGI [34]: > 100 µM | GI50 [35]: 0.929 µM | TGI [35]: > 100 µM | GI50 [36]: < 0.01 µM | TGI [36]: 23.6 µM | GI50 [37]: 6.22 µM | TGI [37]: > 76.8 µM | GI50 [38]: 3.54 µM | TGI [38]: > 100 µM | GI50 [39]: 14.7 µM | TGI [39]: 40.8 µM | GI50 [40]: 6.32 µM | TGI [40]: 34.9 µM | GI50 [41]: 16.3 µM | TGI [41]: > 92.6 µM | GI50 [42]: > 100 µM | TGI [42]: > 100 µM | GI50 [43]: 32.5 µM | TGI [43]: > 100 µM | GI50 [44]: < 0.01 µM | TGI [44]: < 0.01 µM | GI50 [45]: 0.806 µM | TGI [45]: > 100 µM | GI50 [46]: 1.92 µM | TGI [46]: > 71.9 µM | GI50 [47]: 43.3 µM | TGI [47]: > 100 µM | GI50 [48]: 14.9 µM | TGI [48]: > 100 µM | GI50 [49]: 0.498 µM | TGI [49]: > 61.2 µM | GI50 [50]: 42.2 µM | TGI [50]: > 100 µM | GI50 [51]: 48.8 µM | TGI [51]: > 100 µM | GI50 [52]: < 0.01 µM | TGI [52]: < 0.0175 µM | GI50 [53]: 97.6 µM | TGI [53]: > 100 µM | GI50 [54]: > 20 µM | TGI [54]: > 100 µM | GI50 [55]: 14.8 µM | TGI [55]: > 100 µM
